Assay results: patent publication US8263609B2, “Tetrahydro-β-carbolin-sulfonamide derivatives as 5-Ht6 ligands” (Laboratorios Del Dr. Esteve, S.A., priority 2005, dated 2012)

Columns and labels:
[1] = target: T1, 5HT6-human recombinant receptor (Homo sapiens, UniProt P50406); test: Binding to Serotonin Receptor 5HT6 ([3H]-LSD radioligand displacement, HEK-293 cell membranes); conditions: [3H]-LSD 2.7 nM, HEK-293 membranes; for Ki: non-linear regression EBDA/LIGAND; for inhibition at 0.1 µM: compound at 10^−7 M, 60 min, 37° C.
T1 construct: purchased Receptor Biology; host or cells: HEK-293 cell membranes
T1 sequence (P50406 whole entry): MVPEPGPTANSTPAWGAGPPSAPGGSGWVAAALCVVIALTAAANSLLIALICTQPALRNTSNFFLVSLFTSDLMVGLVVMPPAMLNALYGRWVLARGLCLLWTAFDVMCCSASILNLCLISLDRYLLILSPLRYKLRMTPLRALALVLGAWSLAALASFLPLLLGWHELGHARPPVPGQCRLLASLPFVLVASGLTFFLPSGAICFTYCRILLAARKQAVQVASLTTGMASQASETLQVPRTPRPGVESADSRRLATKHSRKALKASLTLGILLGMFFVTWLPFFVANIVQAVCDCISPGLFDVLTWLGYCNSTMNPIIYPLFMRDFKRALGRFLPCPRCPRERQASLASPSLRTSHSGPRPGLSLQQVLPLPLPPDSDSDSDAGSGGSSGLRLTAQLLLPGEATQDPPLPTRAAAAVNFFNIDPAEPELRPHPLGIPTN
Method: Binding to Serotonin Receptor 5HT6
Cell membranes of HEK-293 cells expressing the 5HT6-human recombinant receptor were supplied by Receptor Biology. In said membranes the receptor concentration is 2.18 pmol/mg protein and the protein concentration is 9.17 mg/ml. The experimental protocol follows the method of B. L. Roth et al. [B. L. Roth et al., The Journal of Pharmacology and Experimental Therapeutics, 1994, 268, 1403] with the following slight changes. The respective part of the literature description is hereby incorporated by reference and forms part of the disclosure.
The commercial membrane is diluted (1:40 dilution) with the binding buffer: 50 mM Tris-HCl, 10 mM MgCl2, 0.5 mM EDTA (pH 7.4). The radioligand used is [^3H]-LSD at a concentration of 2.7 nM with a final volume of 200 μl. incubation is initiated by adding 100 μl of membrane suspension, (≈22.9 μg membrane protein), and is prolonged for 60 minutes at a temperature of 37° C. The incubation is ended by fast filtration in a Brandel Cell Harvester through fiber glass filters made by Schleicher & Schuell GF 3362 pretreated with a solution of polyethylenimine at 0.5%. The filters are washed three times with three milliliters of buffer Tris-HCl 50 mM pH 7.4. The filters are transferred to flasks and 5 ml of Ecoscint H liquid scintillation cocktail are added to each flask. The flasks are allowed to reach equilibrium for several hours before counting with a Wallac Winspectral 1414 scintillation counter. Non-specific binding is determined in the presence of 100 μM of serotonin. Tests were made in triplicate. The inhibition constants (Ki, nM) were calculated by non-linear regression analysis using the program EBDA/LIGAND described in Munson and Rodbard, Analytical Biochemistry, 1980, 107, 220, which is hereby incorporated by reference and forms part of the disclosure.

Structure (SMILES) | melting point [°C] | Ki [1] [nM] | inhibition at 0.1 µM [1] [%]
CN1CCc2c([nH]c3ccc(NS(=O)(=O)c4cccc5c(N(C)C)cccc45)cc23)C1 | 241 to 242 | – | –
CN1CCc2c([nH]c3ccc(NS(=O)(=O)c4cc5ccccc5o4)cc23)C1 | 165 to 166 | – | –
CN1CCc2c([nH]c3ccc(NS(=O)(=O)c4ccc(F)c5ccccc45)cc23)C1 | 236 to 238 | – | –
CN1CCc2c([nH]c3ccc(NS(=O)(=O)c4ccc5ccc(Cl)cc5c4)cc23)C1 | 230 to 231 | – | –
CCN1CCc2c([nH]c3ccc(NS(=O)(=O)c4ccc5ccccc5c4)cc23)C1 | 174 to 176 | – | –
O=S(=O)(Nc1ccc2[nH]c3c(c2c1)CCN(CC(F)(F)F)C3)c1c(Cl)nc2sccn12 | 232 to 233 | – | –
O=S(=O)(Nc1ccc2[nH]c3c(c2c1)CCN(CC(F)(F)F)C3)c1ccc2c(Cl)cccc2c1 | 164 to 166 | – | –
O=S(=O)(Nc1ccc2[nH]c3c(c2c1)CCN(CC(F)(F)F)C3)c1csc2ccccc12 | 173 to 175 | – | –
CN1CCc2c([nH]c3ccc(NS(=O)(=O)c4cccc5ccccc45)cc23)C1 | 245 to 246 | – | –
CN1CCc2c([nH]c3cccc(NS(=O)(=O)c4c(Cl)nc5sccn45)c23)C1 | 252 to 253 | – | –
CN1CCc2c([nH]c3cccc(NS(=O)(=O)c4csc5ccccc45)c23)C1 | 236 to 237 | – | –
CN1CCc2c([nH]c3cccc(NS(=O)(=O)c4cccc5ccccc45)c23)C1 | 217 to 218 | – | –
CN1CCc2c([nH]c3cccc(NS(=O)(=O)c4ccc5c(Cl)cccc5c4)c23)C1 | 245 to 247 | – | –
CN1CCc2c([nH]c3cc(NS(=O)(=O)c4csc5ccccc45)ccc23)C1 | 255 to 257 | – | –
CN1CCc2c([nH]c3cc(NS(=O)(=O)c4ccc5c(Cl)cccc5c4)ccc23)C1 | 257 to 259 | – | –
CN1CCc2c([nH]c3c(NS(=O)(=O)c4cccc5c(Cl)cccc45)cccc23)C1 | 251 to 252 | – | –
CN1CCc2c([nH]c3c(NS(=O)(=O)c4ccc5c(Cl)cccc5c4)cccc23)C1 | 256 to 257 | – | –
CN1CCc2c([nH]c3c(NS(=O)(=O)c4cccc5c(N(C)C)cccc45)cccc23)C1 | 225 to 226 | – | –
CN1CCc2c([nH]c3c(NS(=O)(=O)c4c(Cl)nc5sccn45)cccc23)C1 | 230 to 232 | – | –
CN1CCc2c([nH]c3c(NS(=O)(=O)c4cccc5ccccc45)cccc23)C1 | 259 to 260 | – | –
CN1CCc2c([nH]c3c(NS(=O)(=O)c4cccc5nsnc45)cccc23)C1 | 238 to 240 | – | –
CN1CCc2c([nH]c3c(NS(=O)(=O)c4cc5ccccc5o4)cccc23)C1 | 229 to 231 | – | –

Structure (SMILES) | melting point [°C] | Ki [1] [nM] | inhibition at 0.1 µM [1] [%]
CN1CCc2c([nH]c3c(NS(=O)(=O)c4cccc5nonc45)cccc23)C1 | 246 to 247 | – | –
Cc1c(S(=O)(=O)Nc2ccc3[nH]c4c(c3c2)CCN(C)C4)sc2ccc(Cl)cc12 | 259 to 260 | – | –
CN1CCc2c([nH]c3ccc(NS(=O)(=O)c4cccc5nsnc45)cc23)C1 | 244 to 245 | – | –
CC(=O)Nc1ccc(S(=O)(=O)Nc2ccc3[nH]c4c(c3c2)CCN(C)C4)cc1 | 232 to 234 | – | –
CN1CCc2c([nH]c3ccc(NS(=O)(=O)c4ccc(N)cc4)cc23)C1 | 236 to 237 | – | –
CC(=O)Nc1nc(C)c(S(=O)(=O)Nc2ccc3[nH]c4c(c3c2)CCN(C)C4)s1 | 199 to 200 | – | –
CN1CCc2c([nH]c3ccc(NS(=O)(=O)c4c(Cl)nc5sccn45)cc23)C1 [Example 1, 6-chloro-imidazo[2,1-b]thiazole-5-sulfonic acid (2-methyl-2,3,4,9-tetrahydro-1H-β-carbolin-6-yl)-amide] | 232 to 233 | 0.9 | 80.7
CN1CCc2c([nH]c3ccc(NS(=O)(=O)c4csc5ccccc45)cc23)C1 [Example 2, Benzo[b]thiophene-3-sulfonic acid (2-methyl-2,3,4,9-tetrahydro-1H-β-carbolin-6-yl)-amide] | 224 to 226 | 2.8 | 79.5
CN1CCc2c([nH]c3ccc(NS(=O)(=O)c4ccc5c(Cl)cccc5c4)cc23)C1 [Example 4, 5-Chloro-naphthalene-2-sulfonic acid (2-methyl-2,3,4,9-tetrahydro-1H-β-carbolin-6-yl)-amide] | – | – | 70.6
CN1CCc2c([nH]c3ccc(NS(=O)(=O)c4ccc5ccccc5c4)cc23)C1 [Example 12, Naphthalene-2-sulfonic acid (2-methyl-2,3,4,9-tetrahydro-1H-β-carbolin-6-yl)-amide] | 244 to 245 | 15.9 | 89.7
Cc1ccc2sc(S(=O)(=O)Nc3ccc4[nH]c5c(c4c3)CCN(C)C5)cc2c1 [Example 13, 5-Methyl-benzo[b]thiophene-2-sulfonic acid (2-methyl-2,3,4,9-tetrahydro-1H-β-carbolin-6-yl)-amide] | 241 to 242 | – | 71.1
CN1CCc2c([nH]c3ccc(NS(=O)(=O)c4ccc5cc(Cl)ccc5c4)cc23)C1 [Example 16, 6-Chloro-naphthalene-2-sulfonic acid (2-methyl-2,3,4,9-tetrahydro-1H-β-carbolin-6-yl)-amide] | 174 to 175 | – | 85
CCN1CCc2c([nH]c3ccc(NS(=O)(=O)c4c(Cl)nc5sccn45)cc23)C1 [Example 19, 6-Chloro-imidazo[2,1-b]thiazole-5-sulfonic acid (2-ethyl-2,3,4,9-tetrahydro-1H-β-carbolin-6-yl)-amide] | 219 to 222 | 1.1 | 97
CCN1CCc2c([nH]c3ccc(NS(=O)(=O)c4csc5ccccc45)cc23)C1 [Example 22, Benzo[b]thiophene-3-sulfonic acid (2-ethyl-2,3,4,9-tetrahydro-1H-β-carbolin-6-yl)-amide] | 215 to 216 | 36.7 | 84.6
CCCN1CCc2c([nH]c3ccc(NS(=O)(=O)c4c(Cl)nc5sccn45)cc23)C1 [Example 26, 6-Chloro-imidazo[2,1-b]thiazole-5-sulfonic acid (2-propyl-2,3,4,9-tetrahydro-1H-β-carbolin-6-yl)-amide] | 206 to 207 | 2 | 87.9
CC(C)N1CCc2c([nH]c3ccc(NS(=O)(=O)c4c(Cl)nc5sccn45)cc23)C1 [Example 27, 6-Chloro-imidazo[2,1-b]thiazole-5-sulfonic acid (2-isopropyl-2,3,4,9-tetrahydro-1H-β-carbolin-6-yl)-amide] | 234 to 235 | – | 81.8
CN1CCc2c([nH]c3ccc(NS(=O)(=O)c4ccc5ccccc5c4)cc23)C1c1ccccc1 (stereo not drawn) [Example 28, Naphthalene-2-sulfonic acid (2-methyl-1-phenyl-2,3,4,9-tetrahydro-1H-β-carbolin-6-yl)-amide] | 255 to 260 | – | –
CN1CCc2c([nH]c3ccc(NS(=O)(=O)c4csc5ccccc45)cc23)C1c1ccccc1 (stereo not drawn) [Example 29, Benzo[b]thiophene-3-sulfonic acid (2-methyl-1-phenyl-2,3,4,9-tetrahydro-1H-β-carbolin-6-yl)-amide] | 232 to 234 | – | –
CN1CCc2c([nH]c3cc(NS(=O)(=O)c4c(Cl)nc5sccn45)ccc23)C1 [Example 35, 6-Chloro-imidazo[2,1-b]thiazole-5-sulfonic acid (2-methyl-2,3,4,9-tetrahydro-1H-β-carbolin-7-yl)-amide] | 225 to 227 | 8 | 90
CN1CCc2c([nH]c3c(NS(=O)(=O)c4ccc5ccccc5c4)cccc23)C1 [Example 38, Naphthalene-2-sulfonic acid (2-methyl-2,3,4,9-tetrahydro-1H-β-carbolin-8-yl)-amide] | 240 to 242 | – | 73.5
CN1CCc2c([nH]c3c(NS(=O)(=O)c4csc5ccccc45)cccc23)C1 [Example 45, Benzo[b]thiophene-3-sulfonic acid (2-methyl-2,3,4,9-tetrahydro-1H-β-carbolin-8-yl)-amide] | 225 to 226 | 29.7 | 87.1
O=S(=O)(Nc1ccc2[nH]c3c(c2c1)CCNC3)c1c(Cl)nc2sccn12 [Example 47, 6-chloro-imidazo[2,1-b]thiazole-5-sulfonic acid (2,3,4,9-tetrahydro-1H-β-carbolin-6-yl)-amide] | 242 to 244 | – | –
